# Measurements from article PMC3676791, “Synthesis, Cytotoxicity, DNA Binding and Apoptosis of Rhein-Phosphonate Derivatives as Antitumor Agents” (International Journal of Molecular Sciences, 2013).
# Where two headings read alike, the source gives them in different places.
# What was measured:
# Hct-116 cells [1] = conditions: cited from earlier work
# Hela cells = test: MTT cytotoxicity assay, Hela; format: cell-based, human; conditions: 72 h, mean ± SD, three independent experiments
# Source text: (§1) The following in vitro human cancer cell lines were used: HepG 2 ([…]), Hela (Henrietta Lacks strain of cancer cells), Hct-116 (human colorectal cells), CNE (human nasopharyngeal carcinoma cells), Spca-2 (human lung adenocarcinoma cell line), HUVEC (human umbilical vein endothelial cells). The cell lines (HepG 2, Hela, Hct-116, CNE, Spca-2, HUVEC) were purchased from the Cell Resource Center of Shanghai Institutes for Biological Sciences, The Academy of Sciences of China.
# (§2) HepG-2, Hela, Hct-116, CNE, HUVEC cells were cultured in Dulbecco Modified Eagle Medium (DMEM) (Thermo), containing 4.0 mM L-Glutamine and 4,500 mg/L Glucose, supplemented with 10% (v/v) fetal bovine serum (FBS; HyClone, Logan, UT, USA). Spca-2 cells were cultured in RPMI-1640 medium, containing 2.05 mM L-Glutamine without Calcium nitrate, supplemented with 10% (v/v) fetal bovine serum (FBS; HyClone). The cell culture media was supplemented with penicillin/streptomycin at 100 Units/mL as adherent monolayers. Cell cultures were kept in a humidified incubator with 5% CO2 at 37 °C. Stock solutions were prepared in dimethyl sulfoxide (DMSO) and further dilutions were made with fresh culture medium. The concentration of DMSO in the final culture medium was 1%, which had no effect on the cell viability.
# (§3) Chemosensitivity was assessed using 3-(4,5-dimethylthiazol-2-yl)-2,5-diphenyl tetrazolium bromide (MTT) assay. Briefly, exponentially growing HepG-2 (2,000–3,000 cells/well), Hela (2,000–3,000 cells/well), Hct-116 (3,000–4,000 cells/well), CNE (2,000–3,000 cells/well), HUVEC (2,000–3,000 cells/well) and Spca-2 […], and then […] of MTT (10 mg/mL) was added. After incubation for 4 h at 37 °C, the purple formazan crystals (i.e., a reduced form of MTT) generated from viable cells were dissolved by adding 100 μL DMSO in each well. The plates were swirled gently for 10 min to dissolve the precipitate, and quantified by measuring the optical density (OD) of the plates at a wavelength of 490 nm on plate reader (TECAN infinite M1000). Each concentration was repeated in three wells and the same experimental conditions were provided for all compounds and MTT analysis was repeated three times for each cell line.
# HepG-2 cells [2] = test: MTT cytotoxicity assay, HepG-2; format: cell-based, human; conditions: 72 h, mean ± SD, three independent experiments
# Source text: as §1, §2, §3
# CNE cells = test: MTT cytotoxicity assay, CNE; format: cell-based, human; conditions: 72 h, mean ± SD, three independent experiments
# Source text: as §1, §2, §3
# Spca-2 cells = test: MTT cytotoxicity assay, Spca-2; format: cell-based, human; conditions: 72 h; mean ± SD, three independent experiments
# Source text: as §1, §2
# as §3, with “Each concentration was repeated in three wells and the same experimental conditions were provided for all compounds and MTT analysis was repeated three times for each cell line.” left out
# HepG-2 cells [3] = test: Cell cycle analysis by PI flow cytometry, HepG-2; format: cell-based, human; conditions: 48 h, untreated 4.27%
# Source text: The cell cycle is the series of events that take place in a cell leading to its division and duplication (replication). The cell cycle consists of four distinct phases: G1 phase, S phase (synthesis), G2 phase (collectively known as interphase) and M phase (mitosis). The G1 stage is the stage when preparation of energy and material for DNA replication occurs. The S stage is the stage when DNA replication occurs. The G2 stage is the stage when preparation for the M stage occurs. The M stage is “mitosis,” and is when nuclear and cytoplasmic division occurs.
# The cell lines were treated with indicated concentrations of compounds. After being incubated for 48 h, cells were washed twice with ice-cold PBS, fixed and permeabilized with ice-cold 70% ethanol at −20 °C overnight. The cells were treated with 100 μg/mL RNase A at 37 °C for 30 min after washed with ice-cold PBS, and finally stained with 1 mg/mL propidium iodide (PI) in the dark at 4 °C for 30 min. Analysis was performed with the system software (CellQuest; BD Biosciences).
# ct-DNA [4] = test: GelRed-ct-DNA competitive fluorescence quenching (Stern-Volmer); format: binding, calf; parameters: unit not given here; conditions: [GelRed]/[DNA] = 1:10, excitation 350 nm, emission 590 nm
# Source text: The binding ability of these complexes to ct-DNA was primarily investigated by competitive binding in which they served as an intercalative binding probe in competition with GelRed. GelRed, which is environmentally safe and ultra-sensitive for DNA staining, is a newly developed DNA intercalator to replace the classic DNA intercalator EB. Furthermore, both GelRed and EB bound with ct-DNA emit characteristic fluorescence at 590 nm upon 350 nm UV light excitation.
# In competitive binding experiments, GelRed and ct-DNA solutions were pre-incubated for 30 min to ensure sufficient interactions. The concentration ratio of GelRed to DNA was set at [GelRed]/[DNA] = 1:10 to ensure sufficient binding sites of DNA for GelRed. The emission spectra of the GelRed–ctDNA system in the absence and presence of 5b were shown in Figure 2 (for that of 5a and 5c, see Figures S3 and S4). […] The presence of 5b considerably quenched the fluorescence emission of GelRed with the saturation state achieved at the [5b]/[GelRed] ratio of 8:1.
# where [DNA] is the DNA concentration in nucleotides, ɛa is the molar extinction coefficient of the compound bound with DNA, ɛf is the extinction coefficient of the free compound, and ɛb is the extinction coefficient of the compound fully bound to DNA. ɛa, ɛf and ɛb are all calculated from the Lambert-Beer’s law (ɛ = A/[compound]). To determine ɛb, it is assumed that the compounds are fully bound with DNA at the point where no further hypochromicity is observed under the addition of ct-DNA, and the apparent absorbance Ab is regarded as the absorbance of only the bound compounds. Ct is the constant concentration of the compounds, and s is the number of binding sites in base pairs. A solution containing 2 × 10^−4 M DNA and 2 × 10^−5 M GelRed ([DNA]/[GelRed] = 10:1) was prepared for GelRed-DNA competitive binding studies. Fluorescence emission spectra were recorded under slit width as 10 nm/10 nm for Ex/Em, respectively. The quenching constant for comparing the efficiency of fluorescence quenching, i.e., Kq, of each compound was obtained by the linear fit of plotting I0/I versus [Q], according to the classic Stern-Volmer equation: I0/I = 1 + Kq × [Q] […] In the fluorescence polarization experiment, each sample was pre-incubated for 40 min before the fluorescence polarization was recorded under the condition of 595 nm emitting wavelength with 350 nm exciting wavelength, and slit width was set as 5 nm/5 nm for Ex/Em, respectively. CD absorption spectra of DNA were measured in TBS at a 100 nm/min scan rate in the wavelength range from 200 to 400 nm, with 1 × 10^−4 M DNA in the absence and presence of each compound of 2 × 10^−5 M, respectively. […]
# HepG-2 cells [5] = test: Annexin V-FITC/PI apoptosis flow cytometry, HepG-2; format: cell-based, human; conditions: 24 h
# Source text: Many anthraquinones such as rhein and emodim induce apoptosis. Flow cytometry was used to investigate analog-induced apoptosis and cell death. The compounds (5a–c) with cytotoxic effects were investigated for the effects on the apoptosis of HepG-2 cells. To clarify the mechanism of rhein derivative-induced cell death, we determined both early and late apoptosis using annexin V-FITC and PI (Propidium iodide) labeling of live cells. Annexin V binds to phosphatidylserine, which is exposed on the cell membrane and is one of the earliest indicators of cellular apoptosis. PI is used as a DNA stain for both flow cytometry to evaluate cell viability or DNA content in cell cycle analysis and microscopy to visualize the nucleus and other DNA containing organelles. It can be used to differentiate necrotic, apoptotic and normal cells. In the present study, the apoptotic cell rates were determined for the HepG-2 cells after stimulation for 24 h by the compounds at different concentrations. […] Compounds 5a and 5b induced apoptosis in 84.4% and 70.4% of the HepG-2 cells. Compounds 5a and 5b are of special interest as these compounds seem to drive HepG-2 cells directly into early apoptosis. Meanwhile, we also investigated for the effects on the apoptosis of HUVEC cells.
# Apoptosis was discriminated with the annexin V-FITC/propidium iodide test. […]
# HUVEC cells = test: MTT cytotoxicity assay, HUVEC normal cells; format: cell-based, human; conditions: normal cell line, 72 h, mean ± SD, three independent experiments
# Source text: as §1, §2, §3
# Hct-116 cells [6] = test: MTT cytotoxicity assay, Hct-116; format: cell-based, human; conditions: 72 h; mean ± SD, three independent experiments
# Source text: as §1, §2
# as §3, with “Each concentration was repeated in three wells and the same experimental conditions were provided for all compounds and MTT analysis was repeated three times for each cell line.” left out
# ct-DNA [7] = test: Circular dichroism spectra of ct-DNA; format: binding, calf; conditions: [5b]/[DNA] ratio 1:10
# Source text: The circular dichroism (CD) is a useful technique to assess whether the nucleic acids undergo conformational changes as a result of complex formation or changes in environmental conditions. […] This was consistent with the characteristic B conformation of DNA [56].
# The decrease in the intensities of both positive and negative bands can usually be observed in the intercalative binding of small molecules to DNA [57].
# where [DNA] is the DNA concentration in nucleotides, ɛa is the molar extinction coefficient of the compound bound with DNA, ɛf is the extinction coefficient of the free compound, and ɛb is the extinction coefficient of the compound fully bound to DNA. ɛa, ɛf and ɛb are all calculated from the Lambert-Beer’s law (ɛ = A/[compound]). To determine ɛb, it is assumed that the compounds are fully bound with DNA at the point where no further hypochromicity is observed under the addition of ct-DNA, and the apparent absorbance Ab is regarded as the absorbance of only the bound compounds. […] Fluorescence emission spectra were recorded under slit width as 10 nm/10 nm for Ex/Em, respectively. The quenching constant for comparing the efficiency of fluorescence quenching, i.e., Kq, of each compound was obtained by the linear fit of plotting I0/I versus [Q], according to the classic Stern-Volmer equation: I0/I = 1 + Kq × [Q] […]
molecule,measurement,setting,value
"O=c1[nH]cc(F)c(=O)[nH]1 [5-Fu, fluorouracil, reference compound]",IC50,Hct-116 cells [1],4.3 ± 0.52 µM
same,IC50,"Hela cells; Homo sapiens, HeLa",> 50 µM
same,IC50,"HepG-2 cells [2]; Homo sapiens, HepG2",20.3 ± 2.43 µM
same,IC50,"CNE cells; Homo sapiens, CNE",> 50 µM
CCOP(=O)(OCC)C(C)(NC(=O)c1cc(O)c2c(c1)C(=O)c1cccc(O)c1C2=O)c1ccc(C)cc1 (centres unmarked) [5a],IC50,Spca-2 cells,16.9 ± 1.32 µM
same,G2-phase population,"HepG-2 cells [3]; HepG-2, 20 μM",7.23%
same,G2-phase population,"HepG-2 cells [3]; HepG-2, 30 μM",11.08%
same,G2-phase population,"HepG-2 cells [3]; HepG-2, 40 μM",18.05%
same,IC50,Hela cells,> 50 µM
same,quenching constant Kq (Stern-Volmer),ct-DNA [4],2.02 × 10^3
same,IC50,HepG-2 cells [2],15.1 ± 1.54 µM
same,IC50,CNE cells,33.8 ± 2.17 µM
same,"apoptosis induced, % of HepG-2 cells",HepG-2 cells [5],84.4%
same,IC50,HUVEC cells,> 100 µM
same,IC50,Hct-116 cells [6],30.6 ± 8.75 µM
"CCOP(=O)(OCC)C(C)(CCc1ccccc1)NC(=O)c1cc(O)c2c(c1)C(=O)c1cccc(O)c1C2=O (centres unmarked) [5b, O,O′-Diethyl{[2-(4,5-dihydroxy-9,10-dioxo-9,10-dihydroanthracene)acetamido] (Phenylethyl)ethyl} phosphonate]",IC50,Spca-2 cells,9.01 ± 0.87 µM
same,percentage decrease in maximal DNA negative CD absorption,ct-DNA [7]; negative band at 245 nm,32.2%
same,percentage decrease in maximal DNA positive CD absorption,ct-DNA [7]; positive band at 280 nm,9.78%
same,G2-phase population,"HepG-2 cells [3]; HepG-2, 10 μM",8.52%
same,G2-phase population,"HepG-2 cells [3]; HepG-2, 20 μM",14.56%
same,G2-phase population,"HepG-2 cells [3]; HepG-2, 30 μM",18.23%
same,IC50,Hela cells,45.4 µM
same,quenching constant Kq (Stern-Volmer),ct-DNA [4],3.2 × 10^3
same,IC50,HepG-2 cells [2],8.82 ± 0.95 µM
same,IC50,CNE cells,27.3 ± 3.78 µM
same,"apoptosis induced, % of HepG-2 cells",HepG-2 cells [5],70.4%
same,IC50,HUVEC cells,> 100 µM
same,IC50,Hct-116 cells [6],12.7 ± 1.5 µM
O=C(O)c1cc(O)c2c(c1)C(=O)c1cccc(O)c1C2=O [Rhein],IC50,"Hela cells; Homo sapiens, HeLa",> 50 µM
same,quenching constant Kq (Stern-Volmer),ct-DNA [4],3.94 × 10^3
same,IC50,"HUVEC cells; Homo sapiens, HUVEC",79.7 ± 5.4 µM
"O,O′-Diethyl {[2-(4,5-dihydroxy-9,10-dioxo-9,10-dihydroanthracene) acetamido] (phenyl) methyl} phosphonate [5c]",IC50,Spca-2 cells,25.1 ± 2.72 µM
same,IC50,Hela cells,> 50 µM
same,quenching constant Kq (Stern-Volmer),ct-DNA [4],0.753 × 10^3
same,IC50,HepG-2 cells [2],18.2 ± 1.87 µM
same,IC50,CNE cells,38.3 ± 8.23 µM
same,IC50,HUVEC cells,> 100 µM
same,IC50,Hct-116 cells [6],23.4 ± 3.22 µM
